# Laboratory results taken from paper PMC10926604, “Discovery of a novel small molecule as CD47/SIRPα and PD-1/PD-L1 dual inhibitor for cancer immunotherapy” (Cell Communication and Signaling : CCS, 2024).
# Entries after “also recorded” stand apart in the source; their conditions may differ.
# Key:
# MC38 tumor-bearing mice = assay: MC38 tumor model; assay type: in vivo, mouse; conditions: 2 or 6 mg/kg i.p. daily for 14 days
# Method: The animal studies were conducted in accordance with the guidelines and approved by the Ethics Committee of Zhengzhou University (ZZUIRB 2021–36). Six weeks old female mice were purchased from the Vital River Laboratory (Beijing, China). Mouse MC38 colorectal cancer cells (1 × 10^6) were harvested and subcutaneously (s.c.) injected into the right abdomen of the mice. When the tumor size reached 40 ~ 80 mm^3, the mice were randomly assigned into three groups (n = 5 per group) to receive intraperitoneal injections daily of SMC18 (2 mg/kg), SMC18 (6 mg/kg) or normal saline for 14 days. At day 23, mice were euthanized for ex vivo analysis.
# hLAG-3/hFGL-1 = hLAG-3/hFGL-1 (Homo sapiens, UniProt P18627+Q08830); assay: Blockade of other immune checkpoint pathways, LAG-3/FGL-1; assay type: cell-based; conditions: Fig. S2
# Sequence of hLAG-3/hFGL-1 (P18627 23-525): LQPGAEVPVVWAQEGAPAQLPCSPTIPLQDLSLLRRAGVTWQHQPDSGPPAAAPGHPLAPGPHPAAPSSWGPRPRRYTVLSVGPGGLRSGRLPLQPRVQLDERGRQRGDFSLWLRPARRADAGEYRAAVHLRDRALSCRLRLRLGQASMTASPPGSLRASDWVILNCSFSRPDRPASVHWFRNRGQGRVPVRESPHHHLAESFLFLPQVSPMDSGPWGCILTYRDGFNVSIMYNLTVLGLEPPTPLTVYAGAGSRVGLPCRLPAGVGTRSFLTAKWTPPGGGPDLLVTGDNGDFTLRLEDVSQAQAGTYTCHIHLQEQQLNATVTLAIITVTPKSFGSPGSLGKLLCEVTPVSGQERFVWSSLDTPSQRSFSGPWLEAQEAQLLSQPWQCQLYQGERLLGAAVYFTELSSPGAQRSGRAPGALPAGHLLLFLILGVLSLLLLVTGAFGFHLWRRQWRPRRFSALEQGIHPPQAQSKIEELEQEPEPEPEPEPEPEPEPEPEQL
# Sequence of hLAG-3/hFGL-1 (Q08830 23-312): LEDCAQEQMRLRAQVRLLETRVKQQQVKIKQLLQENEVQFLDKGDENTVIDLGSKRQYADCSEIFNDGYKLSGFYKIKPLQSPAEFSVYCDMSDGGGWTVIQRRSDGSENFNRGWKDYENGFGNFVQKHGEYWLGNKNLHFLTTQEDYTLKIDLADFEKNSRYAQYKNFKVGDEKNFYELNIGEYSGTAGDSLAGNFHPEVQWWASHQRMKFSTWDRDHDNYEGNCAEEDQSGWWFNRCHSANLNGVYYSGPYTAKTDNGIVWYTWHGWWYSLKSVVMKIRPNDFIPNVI
compound,measurement,setting,value
Cc1cc(C)cc(NS(=O)(=O)c2ccc3[nH]cc(C(=O)NCCc4ccccc4)c(=O)c3c2)c1 [SMC18],body weight of tumor-bearing mice,MC38 tumor-bearing mice,without affecting
same,growth of MC38 tumors,MC38 tumor-bearing mice,effectively delayed
same,inhibitory effect on hLAG-3/hFGL-1 pathway,hLAG-3/hFGL-1,no blocking effect; also recorded: did not impede
